Key:
Format in all cases: cell-based
CCRF-CEM = assay: Cytotoxic MTS assay, CCRF-CEM; settings: Homo sapiens, 72 h, T-lymphoblastic leukemia
Excerpt: (§1) Cytotoxic activity of all synthesized compounds was investigated in vitro against eight human cancer cell lines and two non-tumor fibroblasts using the standard MTS test (Table 1). The cancer cell lines were derived from T-lymphoblastic leukemia CCRF-CEM, leukemia K562 and their multiresistant counterparts expressing P-glycoprotein, MRP1 and LRP proteins (CEM-DNR, K562-TAX), solid tumors including lung (A549) and colon (HCT116, HCT116p53-/-) carcinomas, osteosarcoma cell line (U2OS), and for comparison, tests were performed on two human non-cancer fibroblast cell lines (BJ, MRC-5).
(§2) Biological assays were performed in concordance with our previous publications [[29], [58]; [60]; [61]]. All cells (if not indicated otherwise) were purchased from the American Tissue Culture Collection (ATCC). The CCRF-CEM line is derived from T lymphoblastic leukemia, evincing high chemosenzitivity, K562 represent cells from an acute myeloid leukemia patient sample with bcr-abl translocation, U2OS line is derived from osteosarcoma, HCT116 is colorectal tumor cell line and its p53 gene knock-down counterpart (HCT116p53-/-, Horizon Discovery Ltd, UK) is a model of human cancers with p53 mutation frequently associated with poor prognosis, A549 line is lung adenocarcinoma. The daunorubicin resistant subline of CCRF-CEM cells (CEM-DNR bulk) and paclitaxel resistant subline K562-TAX were selected in our laboratory by the cultivation of maternal cell lines in increasing concentrations of daunorubicine or paclitaxel, respectively. The CEM-DNR bulk cells overexpress MRP-1 and P-glycoprotein protein, while K562-TAX cells overexpress P-glycoprotein only. Both proteins belong to the family of ABC transporters and are involved in the primary and/or acquired multidrug resistance phenomenon. MRC-5 and BJ cell lines were used as a non-tumor control and represent human fibroblasts. The cells were maintained in nunc/corning 80 cm^2 plastic tissue culture flasks and cultured in cell culture medium according to ATCC or Horizon recommendations (DMEM/RPMI 1640 with 5 g/L glucose, 2 mM glutamine, 100 U/mL penicillin, […] streptomycin, 10% fetal calf serum, and NaHCO3).
(§3) MTS assay was performed at Institute of Molecular and Translational Medicine by robotic platform (HighResBiosolutions). Cell suspensions were prepared and diluted according to the particular cell type and the expected target cell density (25000–35000 cells/mL based on cell growth characteristics). Cells were added by automatic pipetor (30 μL) into 384 well microtiter plates. All tested compounds were dissolved in 100% DMSO and four-fold dilutions of the intended test concentration were added in 0.15 μL aliquots at time zero to the microtiter plate wells by the echoacustic non-contact liquid handler Echo550 (Labcyte). The experiments were performed in technical duplicates and three biological replicates at least. The cells were incubated with the tested compounds for 72 h at 37°C, in a 5% CO2 atmosphere at 100% humidity. At the end of the incubation period, the cells were assayed by using the MTS test. Aliquots (5 μL) of the MTS stock solution were pipetted into each well and incubated for additional 1–4 h. After this incubation period, the optical density (OD) was measured at 490 nm with an Envision reader (Perkin Elmer). Tumor cell survival (TCS) was calculated by using the following equation: TCS = (ODdrug-exposed well/mean ODcontrol wells) × 100%. The IC50 value, the drug concentration that is lethal to 50% of the tumor cells, was calculated from the appropriate dose-response curves in Dotmatics software.

CEM-DNR = assay: Cytotoxic MTS assay, CEM-DNR; settings: Homo sapiens, 72 h, daunorubicin resistant subline of CCRF-CEM
Excerpt: as §1, §2, §3

K562 = assay: Cytotoxic MTS assay, K562; settings: Homo sapiens, 72 h, leukemia
Excerpt: as §1, §2, §3

K562-TAX = assay: Cytotoxic MTS assay, K562-TAX; settings: Homo sapiens, 72 h, paclitaxel resistant subline of K562
Excerpt: as §1, §2, §3

A549 = assay: Cytotoxic MTS assay, A549; settings: Homo sapiens, 72 h, lung adenocarcinoma
Excerpt: as §1, §2, §3

HCT116 = assay: Cytotoxic MTS assay, HCT116; settings: Homo sapiens, HCT-116, 72 h, colorectal tumor
Excerpt: as §1, §2, §3

HCT116p53-/- = assay: Cytotoxic MTS assay, HCT116p53-/-; settings: Homo sapiens, 72 h, p53 knock-down colorectal tumor
Excerpt: as §1, §2, §3

U2OS = assay: Cytotoxic MTS assay, U2OS; settings: Homo sapiens, 72 h, osteosarcoma
Excerpt: as §1, §2, §3

BJ = assay: Cytotoxic MTS assay, BJ fibroblasts; settings: Homo sapiens, 72 h, non-tumor fibroblasts
Excerpt: as §1, §2, §3

MRC-5 = assay: Cytotoxic MTS assay, MRC-5 fibroblasts; settings: Homo sapiens, MRC5, 72 h, non-tumor fibroblasts
Excerpt: as §1, §2, §3

| SMILES | IC50 (CCRF-CEM) | IC50 (CEM-DNR) | IC50 (K562) | IC50 (K562-TAX) | IC50 (A549) | IC50 (HCT116) | IC50 (HCT116p53-/-) | IC50 (U2OS) | IC50 (BJ) | IC50 (MRC-5) |
| --- | --- | --- | --- | --- | --- | --- | --- | --- | --- | --- |
| C=C(Cn1cc(CN)nn1)[C@@H]1CC[C@]2(C(=O)O)CC[C@]3(C)C(CCC4[C@@]5(C)CC[C@H](OC(C)=O)C(C)(C)C5CC[C@]43C)C12 (stereo partly drawn) [Compound 9h] | 20.2 µM | 28.3 µM | > 50 µM | > 50 µM | 30.5 µM | 32 µM | > 50 µM | 30.6 µM | > 50 µM | > 50 µM |
| C=C(Cn1cc(-c2ccc(N(C)C)cc2)nn1)[C@@H]1CC[C@]2(C(=O)O)CC[C@]3(C)C(CCC4[C@@]5(C)CC[C@H](OC(C)=O)C(C)(C)C5CC[C@]43C)C12 (stereo partly drawn) [Compound 9e] | 19.4 µM | 29.6 µM | 35.4 µM | 30 µM | 26.6 µM | 32.9 µM | 33.1 µM | 31 µM | 35.1 µM | 30.3 µM |
| C=C(Cn1cc(-c2cccnc2)nn1)[C@@H]1CC[C@]2(C(=O)O)CC[C@]3(C)C(CCC4[C@@]5(C)CC[C@H](OC(C)=O)C(C)(C)C5CC[C@]43C)C12 (stereo partly drawn) [Compound 9d] | 14.9 µM | 12 µM | 13.3 µM | 11.2 µM | 11.3 µM | 19.2 µM | 18.7 µM | 17.3 µM | 29.9 µM | 28.2 µM |
| C=C(Cn1cc(-c2ccccc2)nn1)[C@@H]1CC[C@]2(C(=O)O)CC[C@]3(C)C(CCC4[C@@]5(C)CC[C@H](O)C(C)(C)C5CC[C@]43C)C12 (stereo partly drawn) [Compound 11a] | 16.6 µM | 23.8 µM | > 50 µM | 23.3 µM | > 50 µM | > 50 µM | > 50 µM | > 50 µM | > 50 µM | > 50 µM |
| C=C(Cn1cc(-c2ccc(C(C)(C)C)cc2)nn1)[C@@H]1CC[C@]2(C(=O)O)CC[C@]3(C)C(CCC4[C@@]5(C)CC[C@H](O)C(C)(C)C5CC[C@]43C)C12 (stereo partly drawn) [Compound 11f] | > 50 µM | 13.7 µM | > 50 µM | 16 µM | > 50 µM | 36.7 µM | > 50 µM | > 50 µM | > 50 µM | > 50 µM |
| C=C(Cn1cc(-c2ccccn2)nn1)[C@@H]1CC[C@]2(C(=O)O)CC[C@]3(C)C(CCC4[C@@]5(C)CC[C@H](O)C(C)(C)C5CC[C@]43C)C12 (stereo partly drawn) [Compound 11c] | 14.4 µM | 8.5 µM | > 50 µM | 7.2 µM | > 50 µM | > 50 µM | > 50 µM | > 50 µM | > 50 µM | > 50 µM |
| C=C(Cn1cc(-c2ccccc2)nn1)[C@@H]1CC[C@]2(C(=O)O)CC[C@]3(C)C(CCC4[C@@]5(C)CC[C@H](OC(C)=O)C(C)(C)C5CC[C@]43C)C12 (stereo partly drawn) [Compound 9a] | 13.4 µM | 19.5 µM | 15.1 µM | 19.1 µM | 23.4 µM | 25.1 µM | 31.1 µM | 24.8 µM | > 50 µM | 32.4 µM |
| C=C(Cn1cc(C2CCCC2)nn1)[C@@H]1CC[C@]2(C(=O)O)CC[C@]3(C)C(CCC4[C@@]5(C)CC[C@H](O)C(C)(C)C5CC[C@]43C)C12 (stereo partly drawn) [Compound 11g] | 16.7 µM | 38 µM | > 50 µM | 23.3 µM | > 50 µM | 33.5 µM | > 50 µM | > 50 µM | > 50 µM | > 50 µM |
| C=C(C)[C@@H]1CC[C@]2(C(=O)O)CC[C@]3(C)[C@H](CC[C@@H]4[C@@]5(C)CC[C@H](O)C(C)(C)[C@@H]5CC[C@]43C)[C@@H]12 [Compound 1, betulinic acid] | 45.5 µM | 45.4 µM | 40 µM | 43.1 µM | 43.4 µM | 38 µM | > 50 µM | > 50 µM | 37.6 µM | 32.9 µM |
| C=C(CN=[N+]=[N-])[C@@H]1CC[C@]2(C(=O)O)CC[C@]3(C)C(CCC4[C@@]5(C)CC[C@H](O)C(C)(C)C5CC[C@]43C)C12 (stereo partly drawn) [Compound 8, 30-azidobetulinic acid] | 21.7 µM | 25.8 µM | 17.2 µM | 23.9 µM | 23 µM | 25.5 µM | 24 µM | 25 µM | 34 µM | 19.1 µM |
| C=C(Cn1cc(C2CCCC2)nn1)[C@@H]1CC[C@]2(C(=O)O)CC[C@]3(C)C(CCC4[C@@]5(C)CC[C@H](OC(C)=O)C(C)(C)C5CC[C@]43C)C12 (stereo partly drawn) [Compound 9g] | 26.2 µM | 30.8 µM | 43.6 µM | 29.1 µM | > 50 µM | 38.3 µM | 47.6 µM | 44.1 µM | > 50 µM | > 50 µM |
| C=C(Cn1cc(-c2ccc(C(C)(C)C)cc2)nn1)[C@@H]1CC[C@]2(C(=O)O)CC[C@]3(C)C(CCC4[C@@]5(C)CC[C@H](OC(C)=O)C(C)(C)C5CC[C@]43C)C12 (stereo partly drawn) [Compound 9f] | 34.5 µM | 15 µM | 15.6 µM | 23.4 µM | 45 µM | 41.9 µM | 48.4 µM | 45.8 µM | > 50 µM | > 50 µM |
